pIC50: −log10 of the molar value.
Legend:
[1] = target: Son of sevenless homolog 1/GTPase KRas [G12C] (Homo sapiens, UniProt P01116, G12C); assay: HTRF KRASG12C/SOS1 Binding Assay
Procedure: The HTRF KRASG12C/SOS1 Binding Assay was used to measure the interaction between KRASG12C and SOS1 proteins, and evaluate the enzymatic activity of compounds against KRASG12C. The utilized proteins and assay reagents were obtained from the KRASG12C-SOS1 binding assay kits (Cisbio). Initially, a 2 mM stock solution of the test compound (dissolved in DMSO) was serially diluted in five-fold concentrations using DMSO to obtain eight working solutions 1 (200×). Subsequently, each of the eight working solutions 1 was further diluted in a 20-fold gradient by adding 5 μL into 95 μL of Diluent buffer, mixed completely with vortex mixer, resulting in eight working solutions 2 (10×). In a 384-well white flat-bottom plate, 4 μL of Tag2-KRASG12C solution, 2 μL of working solution 2 (10×) and 4 μL of Tag1-SOS1 solution were sequentially added to each well and mixed, followed by a 15-minute incubation at room temperature (RT). Subsequently, 5 μL of Anti-tag 1-Tb3+ stock solution and 5 μL of Anti-tag2-XL665 were added to each well, mixed, and incubated at 4° C. for 3 hours. […] The inhibition rate was calculated using the following formula:%Inhibitionrate= [(Rationegative-Ratiocompound)/(Rationegative-RatioBlank)]×100Data were analyzed using GraphPad Prism with log (inhibitor) vs. response-Variable Slope (four parameters) fitting calculations for IC50 values.

[2] = target: Phosphatidylinositol 4,5-bisphosphate 3-kinase catalytic subunit alpha isoform (Homo sapiens, UniProt P42336); assay: Inhibition of PI3Kalpha Efficacy assay
Sequence of Phosphatidylinositol 4,5-bisphosphate 3-kinase catalytic subunit alpha isoform (P42336 whole entry, canonical isoform): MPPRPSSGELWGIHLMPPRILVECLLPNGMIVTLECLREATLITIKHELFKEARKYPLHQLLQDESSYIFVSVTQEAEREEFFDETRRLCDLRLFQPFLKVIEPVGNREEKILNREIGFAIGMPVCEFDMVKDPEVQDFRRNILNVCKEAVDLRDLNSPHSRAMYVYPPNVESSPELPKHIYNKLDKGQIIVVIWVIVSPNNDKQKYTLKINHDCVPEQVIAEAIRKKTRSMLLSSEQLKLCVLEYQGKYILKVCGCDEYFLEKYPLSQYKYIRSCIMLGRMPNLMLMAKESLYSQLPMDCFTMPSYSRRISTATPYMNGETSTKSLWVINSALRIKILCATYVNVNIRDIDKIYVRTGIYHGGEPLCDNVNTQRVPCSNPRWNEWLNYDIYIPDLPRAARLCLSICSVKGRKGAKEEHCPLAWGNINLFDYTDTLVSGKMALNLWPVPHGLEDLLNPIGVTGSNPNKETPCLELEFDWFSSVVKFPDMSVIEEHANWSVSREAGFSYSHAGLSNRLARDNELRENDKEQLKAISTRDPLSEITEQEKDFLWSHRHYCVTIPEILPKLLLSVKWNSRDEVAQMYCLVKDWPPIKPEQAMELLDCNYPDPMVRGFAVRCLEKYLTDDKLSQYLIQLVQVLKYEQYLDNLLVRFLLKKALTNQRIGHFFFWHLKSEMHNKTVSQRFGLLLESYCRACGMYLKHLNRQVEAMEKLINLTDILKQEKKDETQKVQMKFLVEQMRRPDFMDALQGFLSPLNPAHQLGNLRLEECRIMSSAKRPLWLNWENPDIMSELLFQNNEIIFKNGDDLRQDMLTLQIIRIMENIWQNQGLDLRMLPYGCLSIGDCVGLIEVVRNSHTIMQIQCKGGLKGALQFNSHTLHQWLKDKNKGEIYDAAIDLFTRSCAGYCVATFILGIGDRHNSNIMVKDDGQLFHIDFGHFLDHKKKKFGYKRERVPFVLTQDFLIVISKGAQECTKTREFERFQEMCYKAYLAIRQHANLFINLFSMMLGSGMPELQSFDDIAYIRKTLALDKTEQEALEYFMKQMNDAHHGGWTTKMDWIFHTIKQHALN
Procedure: (§1) The ADP-Glo™ kinase assay was used to assess the inhibition of PI3Kα with our compounds. The utilized proteins and assay reagents were obtained from the ADP-Glo™ Kinase Assay Kit (Promega). Initially, a 2 mM stock solution of the test compound (dissolved in DMSO) was serially diluted in five-fold concentrations using DMSO to obtain eight working solutions 1 (200′). Subsequently, each of the eight working solutions 1 was further diluted in a 20-fold gradient by adding 5 μL into 95 μL of ddH2O, resulting in eight working solutions 2 (10×). In a 384-well white flat-bottom plate, 2 μL of 2.5×PI3Kα kinase solution and 1 μL of working solution 2 (10×) were added to each well and mixed, followed by a 15-minute incubation at room temperature (RT). Subsequently, 2 μL of 2.5×PI and ATP solution mixture were added to each well, mixed, and incubated at RT for 60 minutes. Then, 5 μL of ADP-Glo (containing 10 mM MgCl2) reagent was added to each well, mixed, and incubated at RT for 40 minutes.Finally, 10 μL of the Kinase Detection Reagent was added to each well, mixed, and incubated at RT for 40 minutes. Luminescence values were recorded using a multi-mode microplate reader with luminescence channel settings, and the inhibitory rate was calculated using the following formula:%Inhibitionrate=[(Negative-testcompound)/(Negative-Blank)]*100Data were analyzed using GraphPad Prism with log(inhibitor) vs. response—Variable Slope(four parameters) fitting calculations for IC5 values.

[3] = target: T1, Phosphatidylinositol 4,5-bisphosphate 3-kinase catalytic subunit delta isoform (Homo sapiens, UniProt O00329); assay: Inhibition of PI3Kdelta Efficacy Assay
T1 sequence (O00329 whole entry): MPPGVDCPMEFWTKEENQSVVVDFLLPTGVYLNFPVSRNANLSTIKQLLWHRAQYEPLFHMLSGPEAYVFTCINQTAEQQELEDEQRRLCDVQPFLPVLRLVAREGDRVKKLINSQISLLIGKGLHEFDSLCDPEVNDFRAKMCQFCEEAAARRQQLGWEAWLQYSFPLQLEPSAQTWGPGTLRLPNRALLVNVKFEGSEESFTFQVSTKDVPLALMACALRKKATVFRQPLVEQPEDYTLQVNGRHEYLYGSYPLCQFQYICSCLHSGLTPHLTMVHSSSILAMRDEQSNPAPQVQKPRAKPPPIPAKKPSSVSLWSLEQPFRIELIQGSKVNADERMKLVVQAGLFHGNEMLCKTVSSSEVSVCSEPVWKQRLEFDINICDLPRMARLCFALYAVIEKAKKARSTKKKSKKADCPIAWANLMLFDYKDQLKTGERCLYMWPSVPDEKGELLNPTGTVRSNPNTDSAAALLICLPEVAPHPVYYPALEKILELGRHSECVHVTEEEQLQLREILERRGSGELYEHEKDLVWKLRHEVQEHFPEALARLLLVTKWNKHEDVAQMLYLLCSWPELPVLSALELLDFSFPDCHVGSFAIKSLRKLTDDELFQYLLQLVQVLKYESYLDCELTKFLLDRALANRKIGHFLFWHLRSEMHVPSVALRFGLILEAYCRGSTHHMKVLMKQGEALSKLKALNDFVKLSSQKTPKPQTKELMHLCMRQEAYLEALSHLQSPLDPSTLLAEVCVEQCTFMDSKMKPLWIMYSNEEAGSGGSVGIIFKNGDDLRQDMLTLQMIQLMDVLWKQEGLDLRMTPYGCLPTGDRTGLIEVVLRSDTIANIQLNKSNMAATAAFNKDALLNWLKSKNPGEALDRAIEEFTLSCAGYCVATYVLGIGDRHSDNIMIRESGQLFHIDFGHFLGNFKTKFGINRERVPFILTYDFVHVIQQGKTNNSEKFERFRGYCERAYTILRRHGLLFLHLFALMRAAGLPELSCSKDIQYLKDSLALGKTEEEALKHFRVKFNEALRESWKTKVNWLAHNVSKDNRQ
Procedure: as §1, with “PI3Kδ” for “PI3Kα”, “(200×)” for “(200′).”, “2.5×PI3Kδ” for “2.5×PI3Kα”, “minutes. Finally,” for “minutes.Finally,”, “IC50” for “IC5”

Sequence of Son of sevenless homolog 1/GTPase KRas [G12C] (P01116 whole entry G12C): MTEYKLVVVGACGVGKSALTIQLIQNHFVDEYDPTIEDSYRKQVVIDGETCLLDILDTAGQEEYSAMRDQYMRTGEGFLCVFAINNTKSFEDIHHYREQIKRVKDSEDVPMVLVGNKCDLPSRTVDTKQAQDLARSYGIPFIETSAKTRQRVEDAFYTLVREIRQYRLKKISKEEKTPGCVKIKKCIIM
Sequence of Son of sevenless homolog 1/GTPase KRas [G12C] (Q07889 whole entry, further chain): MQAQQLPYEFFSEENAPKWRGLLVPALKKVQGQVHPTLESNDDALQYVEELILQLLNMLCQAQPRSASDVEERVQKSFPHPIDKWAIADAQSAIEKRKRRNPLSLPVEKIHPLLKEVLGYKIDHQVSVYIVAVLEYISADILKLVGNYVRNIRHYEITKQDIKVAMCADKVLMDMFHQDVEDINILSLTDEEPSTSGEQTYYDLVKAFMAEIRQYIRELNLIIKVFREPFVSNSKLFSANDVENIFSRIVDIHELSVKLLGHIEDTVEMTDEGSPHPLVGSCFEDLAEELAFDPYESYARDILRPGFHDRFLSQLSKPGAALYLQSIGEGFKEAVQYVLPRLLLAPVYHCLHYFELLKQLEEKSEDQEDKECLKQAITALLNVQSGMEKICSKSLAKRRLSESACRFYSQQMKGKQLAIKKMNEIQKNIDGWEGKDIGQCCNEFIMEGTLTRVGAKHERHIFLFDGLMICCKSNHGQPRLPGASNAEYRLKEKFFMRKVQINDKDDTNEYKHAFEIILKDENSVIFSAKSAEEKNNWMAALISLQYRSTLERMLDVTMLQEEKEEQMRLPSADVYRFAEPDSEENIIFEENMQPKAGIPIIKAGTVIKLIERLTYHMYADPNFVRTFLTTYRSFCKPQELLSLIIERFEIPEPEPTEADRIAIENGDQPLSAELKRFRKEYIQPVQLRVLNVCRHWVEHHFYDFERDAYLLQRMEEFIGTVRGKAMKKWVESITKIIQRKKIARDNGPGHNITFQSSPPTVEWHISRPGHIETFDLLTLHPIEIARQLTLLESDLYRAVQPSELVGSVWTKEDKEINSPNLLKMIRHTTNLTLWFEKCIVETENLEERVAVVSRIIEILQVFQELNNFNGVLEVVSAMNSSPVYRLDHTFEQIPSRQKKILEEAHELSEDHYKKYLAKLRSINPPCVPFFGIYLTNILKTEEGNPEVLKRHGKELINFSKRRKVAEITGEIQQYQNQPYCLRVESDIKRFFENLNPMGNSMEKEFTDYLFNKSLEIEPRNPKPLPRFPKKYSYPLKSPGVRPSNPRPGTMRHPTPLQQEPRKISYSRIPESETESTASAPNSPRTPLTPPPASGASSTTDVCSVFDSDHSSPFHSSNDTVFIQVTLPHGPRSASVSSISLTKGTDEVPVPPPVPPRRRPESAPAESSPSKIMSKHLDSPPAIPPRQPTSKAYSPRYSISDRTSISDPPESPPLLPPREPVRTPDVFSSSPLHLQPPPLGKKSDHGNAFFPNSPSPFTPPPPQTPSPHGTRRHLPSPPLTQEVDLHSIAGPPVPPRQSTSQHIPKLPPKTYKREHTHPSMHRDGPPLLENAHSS

Compound	pIC50 [1]	pIC50 [2]	pIC50 [3]
COc1ncc(-c2ccc3ncnc(N4CCN(C(=O)/C=C/C(C)=O)CC4)c3n2)cc1NS(=O)(=O)c1cnccc1C [US20250145589, Example 223]	6.68	8.85	
COc1ncc(-c2ccc3ncnc(N4CCC5(CN(C(=O)/C=C/C(C)=O)C5)C4)c3c2)cc1NS(=O)(=O)c1ccc(F)cc1F [US20250145589, Example 13]	7.01	7.95	7.07
COc1ncc(-c2ccc3ncnc(N4CCN(C(=O)/C=C/C(C)=O)C[C@@H]4C)c3c2)cc1NS(=O)(=O)c1ccc(F)cc1F [US20250145589, Example 8]	6.65	9.47	7.75
C=C(F)C(=O)N1CCN(c2ncnc3ccc(-c4cnc(OC)c(N(C)S(=O)(=O)c5ccc(F)cc5F)c4)cc23)CC1 [US20250145589, Example 79]			6.04
C=CS(=O)(=O)N1CCN(c2ncnc3ccc(-c4cnc(OC)c(NS(=O)(=O)c5ccc(F)cc5F)c4)cc23)CC1 [US20250145589, Example 207]		8.49	
COc1ncc(-c2ccc3ncnc(N4CCN(C(=O)/C=C/C(C)=O)CC4)c3c2)cc1SS(=O)(=O)c1ccc(F)cc1F [US20250145589, Example 246]	6.80	8.65	7.86

Source: BindingDB's records for patent US20250145589 (Sichuan Huiyu Pharmaceutical, 2025)
